US20260198493A1, “HYDRAZIDE COMPOUND AND AGRICULTURAL/HORTICULTURAL FUNGICIDE” (Nippon Soda Co., Ltd., priority 2022, published 2026)

How the values were obtained:
[1] = system: Botrytis cinerea; format: cell-based; details: 120 h, 25 ppm by volume, Vogel medium, 20° C., five days, dark, read-out: growth inhibition ratio
[2] = system: Botrytis cinerea; test: Control test of cucumber gray mold (sprayed young cucumber seedlings); format: in vivo; details: 96 h, four days after inoculation; for pest or weed control at 125 ppm: 125 ppm by mass spray; for pest or weed control at 25 ppm: 25 ppm by mass spray
Protocol: Then, the drug liquid was sprayed onto young cucumber seedlings cultivated in a nursery pot (variety “Jihai”-based, cotyledon stage), and then air-dried. […] They were left still in a moist room at 20° C. Four days after inoculation, leaves of the young cucumber seedlings were visually observed, and the control value was calculated from the lesion area ratio in accordance with the following equation. [formula]

[3] = system: Venturia inaequalis; test: Control test of apple scab disease (sprayed young apple seedlings); format: in vivo; details: 125 ppm by mass spray, 12 to 14 days after inoculation
Protocol: [formula] […] Then, the drug liquid was sprayed onto young apple seedlings cultivated in a nursery pot (variety “Orin”, three-to four-leaf stage), and then air-dried. Thereafter, conidiospores of fungi causing apple scab disease (Venturia inaequalis) were inoculated thereon (treated area). As a control, the conidiospores were inoculated in a similar manner to the above on young apple seedlings unsprayed with the drug liquid (untreated area). They were left still at 20° C. in a moist room with light and dark cycles repeated every 12 hours. 12 Days to 14 days after inoculation, leaves of young apple seedlings were visually observed, and the control value was calculated from the lesion area ratio in accordance with the equation used in the control test of cucumber gray mold.

[4] = system: Erysiphe graminis f.sp.tritici; test: Control test of wheat powdery mildew disease (sprayed young wheat seedlings); format: in vivo; details: Blumeria graminis, 144 h, 125 ppm by mass spray, six days after inoculation
From the text: [formula] […] Then, the drug liquid was sprayed onto young wheat seedlings cultivated in a nursery pot (variety “Chihoku”, one-to two-leaf stage), and then air-dried. Thereafter, conidiospores of fungi causing wheat powdery mildew disease (Erysiphe graminis f.sp.tritici) were sprinkled on the young wheat seedlings to inoculate them (treated area). As a control, the conidiospores of fungi causing wheat powdery mildew disease (Erysiphe graminis f.sp.tritici) were sprinkled on young wheat seedlings unsprayed with the drug liquid (untreated area). They were left still in a greenhouse at 20° C. Six days after inoculation, leaves of young wheat seedlings were visually observed, and the lesion area ratio was determined to calculate the control value in a similar manner to the previous test.

[5] = system: Colletotrichum acutatum; test: Fungicidal effect test against fungi causing apple anthracnose; details: 96 h, read-out: growth inhibition ratio
[6] = system: Glomerella cingulata; test: Fungicidal effect test against fungi causing grape ripe rot disease; details: Colletotrichum gloeosporioides, 72 h, read-out: growth inhibition ratio

Cc1ccc(CN(NC(=O)c2cc(C)nnc2Oc2cccc(C3CC3)c2F)C(=O)C(C)C)c(C)c1 [b-18]
≥ 75%: inhibition of growth at 25 ppm [1] | pest or weed control at 125 ppm [2] | pest or weed control at 125 ppm [3] | pest or weed control at 125 ppm [4] | inhibition of growth at 25 ppm [5] | inhibition of growth at 25 ppm [6]

COC(=O)N(Cc1ccc(C)cc1C)NC(=O)c1c(Cl)cncc1Oc1cccc(C2CC2)c1F [b-205]
≥ 75%: inhibition of growth at 25 ppm [1] | pest or weed control at 125 ppm [2] | pest or weed control at 125 ppm [3] | pest or weed control at 125 ppm [4] | inhibition of growth at 25 ppm [5] | inhibition of growth at 25 ppm [6]

CC(=O)N(Cc1ccc(C)cc1C)NC(=O)c1cc(C)nnc1Oc1cccc(C2CC2)c1F [b-5, N′-acetyl-3-(3-cyclopropyl-2-fluorophenoxy)-N′-(2,4-dimethylbenzyl)-6-methylpyridazine-4-carbohydrazide]
≥ 75%: inhibition of growth at 25 ppm [1] | pest or weed control at 25 ppm [2] | pest or weed control at 125 ppm [2] | pest or weed control at 125 ppm [3] | pest or weed control at 125 ppm [4] | inhibition of growth at 25 ppm [5] | inhibition of growth at 25 ppm [6]

COC(=O)N(Cc1ccc(Cl)cc1Cl)NC(=O)c1cc(C)nnc1Oc1cccc(C2CC2)c1F [b-57]
≥ 75%: inhibition of growth at 25 ppm [1] | pest or weed control at 125 ppm [2] | pest or weed control at 125 ppm [3] | pest or weed control at 125 ppm [4] | inhibition of growth at 25 ppm [5] | inhibition of growth at 25 ppm [6]

COC(=O)N(Cc1ccc(C)cc1C)NC(=O)c1cc(C)nnc1Oc1cncc(Br)c1 [b-96]
≥ 75%: inhibition of growth at 25 ppm [1] | pest or weed control at 125 ppm [2] | pest or weed control at 125 ppm [3] | pest or weed control at 125 ppm [4] | inhibition of growth at 25 ppm [5] | inhibition of growth at 25 ppm [6]

COC(=O)N(Cc1ccc(OC)cc1C)NC(=O)c1c(F)cncc1Oc1cccc(C2CC2)c1F [b-201]
≥ 75%: inhibition of growth at 25 ppm [1] | pest or weed control at 25 ppm [2] | pest or weed control at 125 ppm [2] | pest or weed control at 125 ppm [3] | pest or weed control at 125 ppm [4] | inhibition of growth at 25 ppm [5] | inhibition of growth at 25 ppm [6]

CC(=S)N(Cc1ccc(C)cc1C)NC(=O)c1cc(C)nnc1Oc1cccc(C2CC2)c1F [b-66, 3-(3-Cyclopropyl-2-fluorophenoxy)-N′-(2,4-dimethylbenzyl)-N′-ethanethioyl-6-methylpyridazine-4-carbohydrazide]
≥ 75%: inhibition of growth at 25 ppm [1] | pest or weed control at 25 ppm [2] | pest or weed control at 125 ppm [2] | pest or weed control at 125 ppm [3] | pest or weed control at 125 ppm [4] | inhibition of growth at 25 ppm [5] | inhibition of growth at 25 ppm [6]

COC(=O)N(Cc1ccc(OC)cc1C)NC(=O)c1ccncc1Oc1cccc(C2CC2)c1F [b-151]
≥ 75%: inhibition of growth at 25 ppm [1] | pest or weed control at 25 ppm [2] | pest or weed control at 125 ppm [2] | pest or weed control at 125 ppm [3] | pest or weed control at 125 ppm [4] | inhibition of growth at 25 ppm [5] | inhibition of growth at 25 ppm [6]

Cc1ccc(CN(NC(=O)c2cc(C)nnc2Oc2cccc(C3CC3)c2F)C(=O)C2CC2)c(C)c1 [b-25]
≥ 75%: inhibition of growth at 25 ppm [1] | pest or weed control at 25 ppm [2] | pest or weed control at 125 ppm [2] | pest or weed control at 125 ppm [3] | pest or weed control at 125 ppm [4] | inhibition of growth at 25 ppm [5] | inhibition of growth at 25 ppm [6]

COCOc1ccc(CN(NC(=O)c2cc(C)nnc2Oc2cccc(C3CC3)c2F)C(=O)OC)c(C)c1 [b-30]
≥ 75%: inhibition of growth at 25 ppm [1] | pest or weed control at 25 ppm [2] | pest or weed control at 125 ppm [2] | pest or weed control at 125 ppm [3] | pest or weed control at 125 ppm [4] | inhibition of growth at 25 ppm [5] | inhibition of growth at 25 ppm [6]

COC(=O)N(Cc1ccc(C)cc1C)NC(=O)c1cc(C)nnc1Oc1cccc(OC)c1F [b-52]
≥ 75%: inhibition of growth at 25 ppm [1] | pest or weed control at 25 ppm [2] | pest or weed control at 125 ppm [2] | pest or weed control at 125 ppm [3] | pest or weed control at 125 ppm [4] | inhibition of growth at 25 ppm [5] | inhibition of growth at 25 ppm [6]
